Test results as given in patent US20100063085A1, “METHOD OF TREATING LEARNING IMPAIRMENT IN DOWN'S SYNDROME SUBJECTS” (University Court of The University of Dundee, priority 2008, published 2010).
Read-outs that look alike come from different tables or passages of the source.

Assays:
Format in all cases: biochemical
PDK1 = target: T1, PDK1 (Homo sapiens, UniProt O15530); test: PDK1 33P kinase assay; settings: for remaining activity at 1 µM: inhibitor 1 μM, read-out: PDKI activity as percentage of control without inhibitor; for remaining activity at 10 µM: inhibitor 10 μM, read-out: PDK1 activity as percentage of control without inhibitor
T1 sequence (O15530 1-556): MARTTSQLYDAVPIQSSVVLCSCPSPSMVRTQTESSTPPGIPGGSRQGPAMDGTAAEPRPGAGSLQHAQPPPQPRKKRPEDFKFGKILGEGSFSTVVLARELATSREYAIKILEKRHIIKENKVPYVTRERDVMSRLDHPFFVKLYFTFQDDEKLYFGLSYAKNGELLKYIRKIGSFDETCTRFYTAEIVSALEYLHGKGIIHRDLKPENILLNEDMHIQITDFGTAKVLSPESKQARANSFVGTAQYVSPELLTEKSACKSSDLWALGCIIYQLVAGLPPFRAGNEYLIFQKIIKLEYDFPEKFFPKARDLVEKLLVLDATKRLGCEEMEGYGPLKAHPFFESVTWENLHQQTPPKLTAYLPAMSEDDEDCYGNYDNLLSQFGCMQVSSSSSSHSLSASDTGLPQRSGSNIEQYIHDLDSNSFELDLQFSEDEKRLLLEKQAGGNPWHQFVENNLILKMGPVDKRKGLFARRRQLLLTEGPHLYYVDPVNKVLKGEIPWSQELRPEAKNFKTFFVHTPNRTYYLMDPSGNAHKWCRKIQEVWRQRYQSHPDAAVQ
Method: (§1) All assays (25.5 μl) were carried out at room temperature (21° C.) and were linear with respect to time and enzyme concentrations under the conditions used. Assays were performed for 30 minutes except assays for LCK and PKB which were performed for 15 minutes using Multidrop Micro reagent dispensers (Thermo Electron Corporation, Waltham, Mass. 02454, USA) in a 96-well format. The concentration of […] [γ-^33P] ATP (800 cpm/pmol) in the assays was one of three concentrations (5, 20 or 50 μM) in order to be at or below Km for ATP for the enzyme. Assays were initiated with MgATP and stopped by addition of 5 μl of 0.5M orthophosphoric acid. Assays were then harvested onto P81 filterplates using a unifilter harvester (PerkinElmer, Boston, Mass. 02118, USA), with a wash buffer of 50 mM orthophosphoric acid. Filterplates were then air dried overnight. 10 μl of Microscint O was added per well prior to counting for radioactivity.
(§2) MKK1, JNK/SAPK1c, SAPK2a/p38, SAPK2b/p38β2, SAPK3/p38γ, SAPK4/p38δ, MAPK2/ERK2, MAPKAP-K1β, MAPKAP-K2, MSK1, PRAK, PKA, PKCα, PDK1, SGK, p70S6K, GSK3β, ROCK-II, PRK2, AMPK, CHK1, CHK2, CK2, PHK, LCK, were assayed according to Davies et al., (Davies, S. P., Reddy, H., Caivano, M. and Cohen, P. Biochem. J. 351, 95-105, 2000.
(§3) CSK and CDK2/cyclinA, were assayed according to Bain et al. (Bain J, McLauchlan H, Elliott M, Cohen P. Biochem J. 371, 199-204, 2003., except that ATP concentrations were either 5, 20 or 50 micromolar so that they were at or below the Km for ATP. The ATP concentrations used were as follows, 5 μM for assays of MKK1, SAPK3, SAPK4, GSK3β, PRK2 CK2 20 μm for assays of JNK, SAPK2β, MAPKAP-K2, MSK1, PRAK, PKA, […], PDK1, SGK, p70S6K, ROCK-II, CHK1, CHK2, CSK, CDK2, and 50 μM for assays of SAPK2a, MAPK2/ERK2, AMPK, LCK, PHK and MAPKAP-K1β.

CK2 = CK2 33P kinase assay
Method: as §1, §2, §3

CSK = CSK (Homo sapiens, UniProt P41240); test: CSK 33P kinase assay; settings: read-out: CSK activity as percentage of control without inhibitor
Method: as §1, §3

PKBΔph = PKBΔph 33P kinase assay
Method: as §1

SAPK3/p38g = target: T2, SAPK3/p38g (Homo sapiens, UniProt P53778); test: SAPK3/p38g 33P kinase assay; settings: read-out: SAPK3/p38g activity as percentage of control without inhibitor
T2 sequence (P53778 1-367): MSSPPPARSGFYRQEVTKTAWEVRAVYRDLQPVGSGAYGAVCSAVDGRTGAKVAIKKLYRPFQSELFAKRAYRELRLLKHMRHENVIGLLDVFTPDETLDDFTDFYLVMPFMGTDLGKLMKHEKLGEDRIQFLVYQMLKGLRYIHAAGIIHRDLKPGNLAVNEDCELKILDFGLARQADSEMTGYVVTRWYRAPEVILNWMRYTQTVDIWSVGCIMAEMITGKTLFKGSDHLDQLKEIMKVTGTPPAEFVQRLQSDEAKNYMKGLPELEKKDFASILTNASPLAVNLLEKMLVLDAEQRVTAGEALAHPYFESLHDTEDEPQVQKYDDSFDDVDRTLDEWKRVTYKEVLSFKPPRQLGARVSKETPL
Method: as §1, §2, §3

MAPKAP-K1b = MAPKAP-K1b (Homo sapiens, UniProt P51812); test: MAPKAP-K1b 33P kinase assay; settings: read-out: MAPKAP-K1b activity as percentage of control without inhibitor
Method: as §1, §2, §3

MAPKAP-K2 = MAPKAP-K2 (Homo sapiens, UniProt P49137); test: MAPKAP-K2 33P kinase assay; settings: read-out: MAPKAP-K2 activity as percentage of control without inhibitor
Method: as §1, §2, §3

CK1 = CK1 33P kinase assay
Method: as §1

MKK1 = MKK1 (Homo sapiens, UniProt Q02750); test: MKK1 33P kinase assay; settings: read-out: MKK1 activity as percentage of control without inhibitor
Method: as §1, §2, §3

Sequence of CSK (P41240 whole entry, species assumed): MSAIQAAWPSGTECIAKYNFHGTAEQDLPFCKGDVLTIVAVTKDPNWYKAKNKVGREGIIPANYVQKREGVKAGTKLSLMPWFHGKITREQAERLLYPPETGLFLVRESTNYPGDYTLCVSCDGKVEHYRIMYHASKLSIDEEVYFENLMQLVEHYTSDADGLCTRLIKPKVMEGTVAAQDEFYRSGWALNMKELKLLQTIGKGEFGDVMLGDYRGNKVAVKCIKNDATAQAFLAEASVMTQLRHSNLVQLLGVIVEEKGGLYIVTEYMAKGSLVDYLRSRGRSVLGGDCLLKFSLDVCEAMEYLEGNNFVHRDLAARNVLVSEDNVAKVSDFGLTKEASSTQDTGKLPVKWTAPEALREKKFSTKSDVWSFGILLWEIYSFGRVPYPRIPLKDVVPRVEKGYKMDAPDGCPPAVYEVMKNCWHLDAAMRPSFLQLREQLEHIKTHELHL
Sequence of MAPKAP-K2 (P49137 whole entry, species assumed): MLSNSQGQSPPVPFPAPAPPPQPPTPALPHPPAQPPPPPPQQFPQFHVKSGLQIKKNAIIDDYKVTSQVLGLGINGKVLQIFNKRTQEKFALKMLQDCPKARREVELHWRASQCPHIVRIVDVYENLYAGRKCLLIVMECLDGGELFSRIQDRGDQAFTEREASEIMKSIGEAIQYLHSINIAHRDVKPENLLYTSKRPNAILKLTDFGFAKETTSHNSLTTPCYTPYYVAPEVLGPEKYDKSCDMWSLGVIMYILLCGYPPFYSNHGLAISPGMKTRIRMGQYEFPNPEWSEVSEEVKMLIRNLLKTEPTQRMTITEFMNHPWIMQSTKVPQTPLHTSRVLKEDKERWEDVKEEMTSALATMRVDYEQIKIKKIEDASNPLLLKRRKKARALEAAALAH
Sequence of MAPKAP-K1b (P51812 whole entry, species assumed): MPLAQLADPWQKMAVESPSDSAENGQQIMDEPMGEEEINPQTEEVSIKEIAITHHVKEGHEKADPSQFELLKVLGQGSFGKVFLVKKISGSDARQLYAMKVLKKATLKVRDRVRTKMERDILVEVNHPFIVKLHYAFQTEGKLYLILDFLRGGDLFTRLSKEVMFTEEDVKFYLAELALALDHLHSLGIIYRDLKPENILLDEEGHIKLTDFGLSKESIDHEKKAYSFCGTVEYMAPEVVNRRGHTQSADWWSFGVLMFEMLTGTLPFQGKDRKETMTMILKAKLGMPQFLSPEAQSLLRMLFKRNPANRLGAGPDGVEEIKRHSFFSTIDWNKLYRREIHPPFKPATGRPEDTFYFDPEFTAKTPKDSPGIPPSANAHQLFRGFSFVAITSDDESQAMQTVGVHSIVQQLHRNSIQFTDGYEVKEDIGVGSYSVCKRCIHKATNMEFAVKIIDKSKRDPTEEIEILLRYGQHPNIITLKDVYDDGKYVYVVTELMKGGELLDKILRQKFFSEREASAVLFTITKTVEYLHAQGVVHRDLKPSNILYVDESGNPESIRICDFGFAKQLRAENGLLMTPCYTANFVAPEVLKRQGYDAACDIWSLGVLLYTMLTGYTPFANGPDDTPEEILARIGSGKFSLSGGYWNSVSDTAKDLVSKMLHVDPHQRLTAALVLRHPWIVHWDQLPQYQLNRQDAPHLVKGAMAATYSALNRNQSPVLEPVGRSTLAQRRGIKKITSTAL
Sequence of MKK1 (Q02750 whole entry, species assumed): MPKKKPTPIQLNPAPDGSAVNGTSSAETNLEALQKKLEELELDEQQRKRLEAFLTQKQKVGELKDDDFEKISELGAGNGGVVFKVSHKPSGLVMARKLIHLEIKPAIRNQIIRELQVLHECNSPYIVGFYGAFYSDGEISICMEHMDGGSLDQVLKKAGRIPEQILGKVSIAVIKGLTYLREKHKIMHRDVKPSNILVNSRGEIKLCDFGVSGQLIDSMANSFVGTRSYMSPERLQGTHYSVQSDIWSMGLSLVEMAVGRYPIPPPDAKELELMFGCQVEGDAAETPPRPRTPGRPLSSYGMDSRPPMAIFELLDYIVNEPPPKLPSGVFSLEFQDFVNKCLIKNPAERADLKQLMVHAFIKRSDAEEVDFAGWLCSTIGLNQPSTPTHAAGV

SMILES	remaining activity at 1 µM (PDK1) [%]	remaining activity at 10 µM (PDK1) [%]	CK2 activity as percentage of control without inhibitor (CK2; inhibitor 1 μM) [%]	CK2 activity as percentage of control without inhibitor (CK2; inhibitor 10 μM) [%]	remaining activity at 1 µM (CSK) [%]	remaining activity at 10 µM (CSK) [%]	PKBΔph activity as percentage of control without inhibitor (PKBΔph; inhibitor 1 μM) [%]	PKBΔph activity as percentage of control without inhibitor (PKBΔph; inhibitor 10 μM) [%]	remaining activity at 1 µM (SAPK3/p38g; inhibitor 1 μM) [%]	remaining activity at 10 µM (SAPK3/p38g; inhibitor 10 μM) [%]	remaining activity at 1 µM (MAPKAP-K1b; inhibitor 1 μM) [%]	remaining activity at 10 µM (MAPKAP-K1b; inhibitor 10 μM) [%]	remaining activity at 1 µM (MAPKAP-K2; inhibitor 1 μM) [%]	remaining activity at 10 µM (MAPKAP-K2; inhibitor 10 μM) [%]	CK1 activity as percentage of control without inhibitor (CK1; inhibitor 1 μM) [%]	CK1 activity as percentage of control without inhibitor (CK1; inhibitor 10 μM) [%]	remaining activity at 1 µM (MKK1; inhibitor 1 μM) [%]	remaining activity at 10 µM (MKK1; inhibitor 10 μM) [%]	also measured
COc1ccc2c3c([nH]c2c1)C(C)=NCC3 [Harmaline]	100	95	94	88	64	90	80	98	98	94	87	80	104	112	84	65	47	39	
CC1=NCCc2c1[nH]c1cc(O)ccc21 [Harmalol]	88	96	55	12			92	58	98	92	87	67	79	69	83	48	92	66	remaining activity at 1 µM (CSK; inhibitor 1 μM): 110%; remaining activity at 10 µM (CSK; inhibitor 10 μM): 92%
COc1ccc2c(c1)[nH]c1c(C)nccc12 [Harmine]	89	95	82	41	92	101	107	107							61	21			remaining activity at 1 µM (SAPK3/p38g): 82%; remaining activity at 10 µM (SAPK3/p38g): 72%; remaining activity at 1 µM (MAPKAP-K1b): 89%; remaining activity at 10 µM (MAPKAP-K1b): 95%; remaining activity at 1 µM (MAPKAP-K2): 78%; remaining activity at 10 µM (MAPKAP-K2): 82%; remaining activity at 1 µM (MKK1): 76%; remaining activity at 10 µM (MKK1): 73%
